Three molecules from patent US20240197700A1, “Methods and Compositions for Treating Lysosomal Storage Disorders” (Sanford Health, priority 2021, published 2024) can be followed below.

This assay relates to NCL PNCs. Nature of the assay: LysoTracker signal in Batten disease primary neuronal cultures. The format is cell-based, mouse. The method, then:
Specific experimental details are included in figure legends. In general, after collection and preparation, MEFs and PNCs were dosed with vehicle or semaglutide (10 nM, 100 nM. or 1 μM) on DIV3 and DIV5. On DIV7, cells were exposed to the following dyes: Hoechst 33342 (1:1000 dilution), LysoTracker™ Red DND-99 (1:10,000 dilution), fixed. and imaged. Mice were injected three times per week with vehicle or semaglutide (2.571 μg/mouse, 25.71 μg/mouse) beginning at wean. Body weight was measured at 4, 6, 8, 12, and 16 weeks of age. At 16 weeks of age, Cln3^Δex7/8 mice along with age matched wildtype control mice were CO2 euthanized and intracardially perfused with PBS. Brains were collected and placed on a 1 mm sagittal brain block. Brains were sliced at the midline and 3 mm right of the midline. The 3 mm sagittal piece was flash frozen with −50° C. isopentane and then sectioned on a cryostat at 16 μm and placed on slides. For ASM measurements, slides were counterstained with DAPI. The other hemisphere was fixed in 4% PFA and sectioned at 50 microns on a vibratome. Immunohistochemistry was performed on free-floating sections. For SubC, GFAP, and CD68 immunolabeling, primary antibodies included mitochondrial anti-ATP synthase subunit C (Abcam, ab181243; 1:1000), anti-GFAP (Dako, Z0334; 1:5000), anti-CD68 (AbD Serotec, MCA1957; 1:2000), and secondary antibodies included anti-rabbit biotinylated (Vector Labs, BA-1000 1:1000) and anti-rat (Vector Labs, BA-9400 1:1000). Coverslips were mounted on slides using antifade-mounting media and were stored in the dark before imaging. ASM slides were imaged on a Nikon ECLIPSE™ Ni-E upright microscope with a CoolSNAP™ DYNO camera. Images were extracted from S1BF of the somatosensory cortex, CA3 of the hippocampus, and the VPM/VPL of the thalamus, with multiple images taken of multiple tissues from each animal. IHC slides were imaged and analyzed using an Aperio Digital Pathology Slide Scanner (AT2) and associated software. Images were extracted from the S1BF of the somatosensory cortex, the CA3 of the hippocampus, and the VPM/VPL of the thalamus.
In a further experiment, wild type (WT) and mutant primary neuronal cultures (PNCs) were treated with vehicle or semaglutide (10 nM, 100 nM, 1 μM; see FIG. 19). Cells were plated on in vitro day 0 and dosed with drug-containing media on DIV3 and DIV5. Analysis occurred on DIV7. Concentrations of drug are shown on the x-axis above each image column; genotypes are shown to the left of each row. […] Increasing concentrations of AF38469 are shown along the x-axis.

Turning to `Cc1cccc(NC(=O)c2ccc(C(F)(F)F)cc2C(=O)O)n1` [AF38469, 2-((6-methylpyridin-2-yl)carbamoyl)-5-(trifluoromethyl)benzoic acid], the LysoTracker signal entry by setting is: (40 nM and 400 nM, Cln2^R207X PNCs) “had no impact”; (40 nM, 400 nM, 4 μM, Cln1^R151X and Cln6^nclf PNCs, DIV7) “significantly reduced”; (40 nM, Cln3^Δex7/8 PNCs) “significantly increased”; (40 nM, Cln8^mnd PNCs) “significantly increased”; (400 nM, Cln3^Δex7/8 PNCs) “significantly reduced”; (400 nM, Cln8^mnd PNCs) “significantly increased”. Also, the LysoTracker signal result is, setting by setting: (4 μM, Cln2^R207X PNCs) “significantly reduced”; (4 μM, Cln3^Δex7/8 PNCs) “had no impact”; (4 μM, Cln8^mnd PNCs) “had no impact”.
On to `CC[C@H](C)[C@H](N)C(=O)NCCN1CCOCC1` [LM11A-31, N-[2-(morpholin-4-yl)ethyl]-L-isoleucinamide], for which the LysoTracker signal entry by setting is: (LM11A-31 100 nM, Cln2^R207X PNCs) “significantly reduced”; (LM11A-31 1 μM, Cln6^nclf PNCs) “significantly reduced”.
Turning to semaglutide, the “Lysotracker signal (as printed, FIG. 19B)” value (semaglutide 10 nM, 100 nM, 1 μM, Cln2^R207X and Cln6^nclf PNCs) is on record as “significantly reduced”. In addition, the LysoTracker signal entry by setting is: (semaglutide 10 nM, 100 nM, 1 μM, Cln3^Δex7/8 PNCs) “had no impact”; (semaglutide 10 nM, 100 nM, 1 μM, Cln6^nclf and Cln8^mnd PNCs) “significantly reduced”; (semaglutide 10 nM, 1 μM, Cln2^R207X PNCs) “significantly reduced”; (semaglutide 10 nM, Cln1^R151X PNCs) “significantly elevated”; (semaglutide 100 nM, 1 μM, Cln1^R151X PNCs) “significantly reduced”; (semaglutide 100 nM, Cln2^R207X PNCs) “significantly elevated”.
